In patent US20260306527A1, “PRMT INHIBITOR COMPOUNDS AND THE USES THEREOF” (Purdue Research Foundation, priority 2023, published 2026):
Entries after “also recorded” stand apart in the source; their conditions may differ.

Tests used:
Type in all cases: biochemical
PRMT1 [1] = molecular target: T1, PRMT1 (Homo sapiens, UniProt Q99873); assay: selectivity of YD1113/YD1290 on PRMT panel, PRMT1; settings: vs YD1113
T1 construct: made in house
Procedure: (§1) The selectivity of compounds YD1113 and YD1290 on PRMTs were performed by Reaction Biology Corp.
(§2) Next, the selectivity of YD1113 was investigated on a panel of PRMTs at 10 μM.
(§3) After validating the benzyl urea moiety as an unconventional homocysteine mimic of SAH for PRMTs, it was hypothesized that incorporating the benzyl urea moiety into the original pan PRMT inhibitor II757 would build a potent bisubstrate inhibitor. […] To enable a stable tri-substitution, the sulfur atom with a nitrogen atom was replaced. YD1290 was synthesized following the reported methods 9, 15 and tested in a radioactivity assay for PRMTs (FIG. 6b).

PRMT3 = PRMT3 (Homo sapiens, UniProt O60678); assay: selectivity of YD1113/YD1290 on PRMT panel, PRMT3; settings: vs YD1113
Chain of PRMT3 (O60678 whole entry, species assumed): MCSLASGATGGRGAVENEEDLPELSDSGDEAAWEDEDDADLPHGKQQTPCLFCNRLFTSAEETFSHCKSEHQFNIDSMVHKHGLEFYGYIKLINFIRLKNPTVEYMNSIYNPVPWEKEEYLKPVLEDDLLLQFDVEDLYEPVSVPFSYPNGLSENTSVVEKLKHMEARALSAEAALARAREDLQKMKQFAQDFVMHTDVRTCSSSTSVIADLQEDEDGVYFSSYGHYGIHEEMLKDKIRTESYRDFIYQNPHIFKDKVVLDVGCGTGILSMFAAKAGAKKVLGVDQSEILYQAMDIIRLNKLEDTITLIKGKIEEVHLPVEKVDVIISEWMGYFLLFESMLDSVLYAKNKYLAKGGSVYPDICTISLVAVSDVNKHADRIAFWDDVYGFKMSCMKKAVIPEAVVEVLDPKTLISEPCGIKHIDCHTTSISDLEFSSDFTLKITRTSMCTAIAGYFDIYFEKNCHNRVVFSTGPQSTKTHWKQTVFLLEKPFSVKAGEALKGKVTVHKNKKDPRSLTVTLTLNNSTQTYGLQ
Procedure: as §1, §2, §3

PRMT4 = molecular target: T2, PRMT4 (Homo sapiens, UniProt Q86X55); assay: selectivity of YD1113/YD1290 on PRMT panel, PRMT4
T2 sequence (Q86X55 1-608): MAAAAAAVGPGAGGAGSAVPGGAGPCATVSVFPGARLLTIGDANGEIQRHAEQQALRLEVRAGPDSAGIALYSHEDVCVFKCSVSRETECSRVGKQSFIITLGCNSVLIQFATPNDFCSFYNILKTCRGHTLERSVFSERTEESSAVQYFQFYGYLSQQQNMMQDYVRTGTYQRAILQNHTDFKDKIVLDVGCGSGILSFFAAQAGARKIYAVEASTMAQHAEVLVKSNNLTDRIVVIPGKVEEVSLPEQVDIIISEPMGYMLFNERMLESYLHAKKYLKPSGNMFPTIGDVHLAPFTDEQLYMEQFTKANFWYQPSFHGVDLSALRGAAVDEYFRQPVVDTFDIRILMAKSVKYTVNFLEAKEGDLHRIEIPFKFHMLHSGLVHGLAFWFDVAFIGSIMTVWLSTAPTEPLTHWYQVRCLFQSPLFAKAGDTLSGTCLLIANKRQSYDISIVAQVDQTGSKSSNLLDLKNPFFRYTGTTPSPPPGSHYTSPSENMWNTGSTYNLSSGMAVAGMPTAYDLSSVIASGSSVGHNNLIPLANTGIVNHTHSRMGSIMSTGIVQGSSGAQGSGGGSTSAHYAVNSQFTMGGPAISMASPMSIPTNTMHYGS
Procedure: as §1, §2, §3

PRMT6 = PRMT6 (Homo sapiens, UniProt Q96LA8); assay: selectivity of YD1113/YD1290 on PRMT panel, PRMT6; settings: vs YD1113
Chain of PRMT6 (Q96LA8 whole entry, species assumed): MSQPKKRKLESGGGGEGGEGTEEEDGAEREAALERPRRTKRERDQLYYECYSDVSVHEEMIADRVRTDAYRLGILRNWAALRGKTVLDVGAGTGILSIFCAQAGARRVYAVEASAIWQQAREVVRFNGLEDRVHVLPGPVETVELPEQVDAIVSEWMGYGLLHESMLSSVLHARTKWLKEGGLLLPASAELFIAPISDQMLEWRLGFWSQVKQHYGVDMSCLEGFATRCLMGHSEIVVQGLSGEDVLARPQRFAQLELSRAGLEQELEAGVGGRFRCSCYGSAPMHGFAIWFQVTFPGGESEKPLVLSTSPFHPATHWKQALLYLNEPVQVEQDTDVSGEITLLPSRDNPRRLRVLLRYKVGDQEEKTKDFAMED
Procedure: as §1, §2, §3

PRMT8 = PRMT8 (Homo sapiens, UniProt Q9NR22); assay: selectivity of YD1113/YD1290 on PRMT panel, PRMT8; settings: vs YD1113
Chain of PRMT8 (Q9NR22 whole entry, species assumed): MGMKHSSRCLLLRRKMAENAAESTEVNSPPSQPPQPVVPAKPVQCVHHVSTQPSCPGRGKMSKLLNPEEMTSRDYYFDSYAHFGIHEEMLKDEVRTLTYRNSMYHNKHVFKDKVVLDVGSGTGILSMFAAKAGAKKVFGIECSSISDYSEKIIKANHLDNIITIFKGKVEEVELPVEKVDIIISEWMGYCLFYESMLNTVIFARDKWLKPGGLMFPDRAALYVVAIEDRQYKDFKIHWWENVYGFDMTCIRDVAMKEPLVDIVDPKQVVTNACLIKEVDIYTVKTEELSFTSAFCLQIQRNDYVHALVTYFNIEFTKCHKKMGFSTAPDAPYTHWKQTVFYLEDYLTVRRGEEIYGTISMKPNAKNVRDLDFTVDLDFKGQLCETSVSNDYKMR
Procedure: as §1, §2, §3

type I PRMTs = assay: inhibition of type I PRMTs (summary)
Procedure: as §1

PRMT1 [2] = molecular target: T1, PRMT1; assay: inhibition mechanism study on PRMT1, SAHH-coupled fluorescence; settings: role: inhibitor
Procedure: The inhibition mechanism of YD1290 was study on PRMT1 with the fluorescence-based SAHH-coupled assay. Varying concentrations of SAM (from 5 to 40 μM) with 4 μM fixed concentration of H4-21 or varying concentration of H4-21 (from 4 to 32 μM) with 5 μM fixed concentration of SAM were included in reactions at concentration of YD1290 ranging from 0.15 nM to 10 μM.
All the IC50 values were determined in triplicate. Fluorescence was monitored on a BMG CLARIOstar microplate reader with excitation 380 nm and emission 505 nm. Data were processed by using GraphPad Prism software 8.0.
To confirm the potent inhibition activities of YD1290 on type I PRMTs resulting from bisubstrate characteristics, its inhibition mechanism on PRMT1 was determined through the SAHH-coupled fluorescence-based assay.

SAHH = assay: selectivity, SAHH; settings: 100 μM
Procedure: The effect of the inhibitors on the coupled enzyme, SAHH, was also evaluated. The assay was performed in a final well volume of 100 μL: 25 mM Tris (pH=7.5), 50 mM KCl, 0.01% Triton X-100, 0.1 μM SAHH, and 15 μM ThioGlo1. After incubation for 10 min with the compound, 0.5 μM SAH was added to initiate the reactions.
All experiments were performed in duplicate. Fluorescence was monitored on a BMG CLARIOstar microplate reader with excitation at 380 nm and emission at 505 nm.
To examine the selectivity, the inhibition of YD1290 on four inhouse methyltransferases, including protein N-terminal methyltransferase 1 (NTMT1), nicotinamide N-methyltransferase (NNMT), and two protein lysine methyltransferases PKMT (G9a and SETD7) were tested.

NTMT1 = molecular target: T3, NTMT1 (Homo sapiens, UniProt Q9BV86); assay: selectivity, SAHH-coupled assay NTMT1; settings: 100 μM
T3 construct: GPKRIA peptide as substrate
T3 sequence (Q9BV86 whole entry): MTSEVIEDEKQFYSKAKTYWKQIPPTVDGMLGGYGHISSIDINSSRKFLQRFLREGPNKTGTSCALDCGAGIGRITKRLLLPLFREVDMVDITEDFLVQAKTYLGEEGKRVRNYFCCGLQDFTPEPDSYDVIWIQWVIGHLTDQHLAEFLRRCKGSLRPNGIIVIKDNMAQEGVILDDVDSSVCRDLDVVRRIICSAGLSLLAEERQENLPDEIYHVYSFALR
Procedure: (§4) A fluorescence-based SAHH-coupled assay was applied to study the effect of the compound on methyltransferase activity of NTMT1, SETD7, G9a, NNMT, tbPRMT7 and SAHH. For NTMT1, the assay was performed in a final well volume of 100 μL: 25 mM Tris (pH=7.5), 50 mM KCl, 0.01% Triton X-100, 5 μM.
(§5) SAHH, 0.1 μM NTMT1, 3 μM AdoMet, and 10 μM ThioGlo4. After incubation for 10 min with the inhibitor, reactions were initiated by the addition of 0.5 μM GPKRIA peptide, and the reaction was monitored for 15 min. For SETD7, the assay was performed in a final well volume of 100 μL: 25 mM potassium phosphate buffer (pH=7.6), 0.01% Triton X-100, 5 μM SAHH, 1 μM SETD7, 2 μM AdoMet, and 10 μM ThioGlo1. After incubation for 10 min with the inhibitor, reactions were initiated by the addition of 90 μM H3-21 peptide, and the reaction was monitored for 15 min. […] After incubation for 10 min with the inhibitor, reactions were initiated by the addition of 10 μM nicotinamide, and the reaction was monitored for 18 min. […] After incubation for 10 min with the inhibitor, reactions were initiated by the addition of 60 μM H4-21 peptide, and the reaction was monitored for 15 min. […]
(§6) All experiments were performed in duplicate. Fluorescence was monitored on a BMG CLARIOstar microplate reader with excitation at 380 nm and emission at 505 nm. […]

SETD7 = molecular target: T4, SETD7 (Homo sapiens, UniProt Q8WTS6); assay: selectivity, SAHH-coupled assay SETD7; settings: 100 μM
T4 construct: H3-21 peptide as substrate
T4 sequence (Q8WTS6 whole entry): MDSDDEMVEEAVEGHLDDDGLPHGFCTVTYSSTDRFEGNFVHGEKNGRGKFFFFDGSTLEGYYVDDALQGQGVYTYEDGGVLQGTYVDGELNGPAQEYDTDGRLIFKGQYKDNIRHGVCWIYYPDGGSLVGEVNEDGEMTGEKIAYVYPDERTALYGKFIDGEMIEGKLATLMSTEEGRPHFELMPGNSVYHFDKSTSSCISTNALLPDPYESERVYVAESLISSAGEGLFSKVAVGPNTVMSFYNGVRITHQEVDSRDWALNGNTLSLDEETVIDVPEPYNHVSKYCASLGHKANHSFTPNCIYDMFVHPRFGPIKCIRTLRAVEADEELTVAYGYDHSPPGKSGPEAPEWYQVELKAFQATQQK
Procedure: as §4, §5, §6

G9a = G9a (Homo sapiens, UniProt Q96KQ7); assay: selectivity, SAHH-coupled assay G9a; settings: 100 μM
Chain of G9a (Q96KQ7 whole entry): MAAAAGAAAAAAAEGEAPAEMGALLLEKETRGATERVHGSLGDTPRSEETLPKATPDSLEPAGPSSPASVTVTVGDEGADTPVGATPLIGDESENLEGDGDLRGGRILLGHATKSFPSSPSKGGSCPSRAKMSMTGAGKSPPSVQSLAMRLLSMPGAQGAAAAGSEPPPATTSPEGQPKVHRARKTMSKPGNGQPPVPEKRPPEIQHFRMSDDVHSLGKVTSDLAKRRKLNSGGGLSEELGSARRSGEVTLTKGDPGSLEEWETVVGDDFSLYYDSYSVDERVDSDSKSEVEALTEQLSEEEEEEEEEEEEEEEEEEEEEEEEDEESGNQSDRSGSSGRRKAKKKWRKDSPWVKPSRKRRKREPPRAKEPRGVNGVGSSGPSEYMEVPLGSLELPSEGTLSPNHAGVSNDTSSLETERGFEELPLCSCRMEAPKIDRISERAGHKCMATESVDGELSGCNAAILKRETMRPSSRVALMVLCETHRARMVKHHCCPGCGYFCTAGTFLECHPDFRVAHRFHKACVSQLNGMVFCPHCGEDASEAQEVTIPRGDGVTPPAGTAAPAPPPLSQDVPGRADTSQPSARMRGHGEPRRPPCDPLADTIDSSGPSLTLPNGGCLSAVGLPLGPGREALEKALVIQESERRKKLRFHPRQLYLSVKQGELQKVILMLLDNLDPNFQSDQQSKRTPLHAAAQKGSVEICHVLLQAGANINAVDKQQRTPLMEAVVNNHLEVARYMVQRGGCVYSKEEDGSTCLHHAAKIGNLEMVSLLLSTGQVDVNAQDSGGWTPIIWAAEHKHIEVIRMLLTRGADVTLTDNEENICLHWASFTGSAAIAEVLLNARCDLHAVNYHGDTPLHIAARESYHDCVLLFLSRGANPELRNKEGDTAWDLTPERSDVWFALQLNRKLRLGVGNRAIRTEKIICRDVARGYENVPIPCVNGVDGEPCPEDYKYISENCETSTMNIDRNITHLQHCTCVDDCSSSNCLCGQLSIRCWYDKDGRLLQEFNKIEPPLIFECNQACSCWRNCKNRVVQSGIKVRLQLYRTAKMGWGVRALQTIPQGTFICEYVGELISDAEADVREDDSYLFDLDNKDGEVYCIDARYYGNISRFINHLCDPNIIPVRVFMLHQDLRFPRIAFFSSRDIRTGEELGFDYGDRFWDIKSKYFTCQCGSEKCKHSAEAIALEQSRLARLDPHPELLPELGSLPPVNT
Procedure: as §4, §5, §6

NNMT = molecular target: T5, NNMT (Homo sapiens, UniProt P40261); assay: selectivity, SAHH-coupled assay NNMT; settings: 100 μM
T5 construct: nicotinamide as substrate
T5 sequence (P40261 whole entry): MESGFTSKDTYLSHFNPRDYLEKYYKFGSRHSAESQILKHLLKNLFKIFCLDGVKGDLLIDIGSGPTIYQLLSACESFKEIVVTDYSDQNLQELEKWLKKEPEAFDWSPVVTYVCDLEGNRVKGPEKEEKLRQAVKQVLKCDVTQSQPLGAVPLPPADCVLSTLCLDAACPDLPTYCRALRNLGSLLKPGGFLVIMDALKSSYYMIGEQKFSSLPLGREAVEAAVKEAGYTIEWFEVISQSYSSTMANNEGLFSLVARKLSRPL
Procedure: as §4, §5, §6

PRMTs = assay: radioactivity assay, all tested PRMTs
Procedure: as §1, §3

T1 sequence (Q99873 whole entry, species assumed): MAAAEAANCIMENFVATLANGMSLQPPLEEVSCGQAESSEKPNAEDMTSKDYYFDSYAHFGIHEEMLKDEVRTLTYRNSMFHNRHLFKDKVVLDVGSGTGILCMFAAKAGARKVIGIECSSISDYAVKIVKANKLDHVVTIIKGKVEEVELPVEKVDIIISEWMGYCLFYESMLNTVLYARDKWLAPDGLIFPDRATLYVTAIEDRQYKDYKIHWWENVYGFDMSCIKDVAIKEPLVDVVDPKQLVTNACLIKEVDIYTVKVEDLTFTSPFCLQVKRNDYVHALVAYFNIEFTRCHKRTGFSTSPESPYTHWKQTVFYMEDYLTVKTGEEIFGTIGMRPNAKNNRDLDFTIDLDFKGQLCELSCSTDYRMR

N=C(NCCCN(CCNC(=O)NCc1ccccc1)C[C@H]1O[C@@H](n2cnc3c(N)ncnc32)[C@H](O)[C@@H]1O)Nc1cccc(Br)c1 [YD1290]
fold potency to PRMT1 compared to YD1113 (PRMT1 [1]): > 80 fold
fold potency to PRMT3 compared to YD1113 (PRMT3): > 80 fold
PRMT4 activity (PRMT4; 1.5 nM, radioactivity assay): completely abolished PRMT4 activity
fold potency to PRMT4 compared to YD1113 (PRMT4; vs YD1113): > 80 fold
fold potency to PRMT6 compared to YD1113 (PRMT6): > 80 fold
fold potency to PRMT8 compared to YD1113 (PRMT8): > 80 fold
IC50 (type I PRMTs): < 5 nM
inhibition mechanism vs peptide substrate, PRMT1 (PRMT1 [2]; H4-21 4 to 32 μM, SAM 5 μM fixed): slightly increased when the ratio of peptide/Km increased; also recorded: peptide-site competitive inhibitor of PRMT1
inhibition mechanism vs SAM, PRMT1 (PRMT1 [2]; SAM 5 to 40 μM, H4-21 4 μM fixed): SAM-site competitive inhibitor of PRMT1
inhibition of SAHH (SAHH): did not display any significant inhibition
inhibition of NTMT1 (NTMT1): did not display any significant inhibition
inhibition of SETD7 (SETD7): did not display any significant inhibition
inhibition of G9a (G9a): did not display any significant inhibition
inhibition of NNMT (NNMT): did not display any significant inhibition
potency to all tested PRMTs (PRMTs): demonstrated potency to all tested PRMTs
